SMILES strings stand for the structures.

The record followed here is patent US12593841B2, “Antimicrobial mixture containing 4-(3-ethoxy-4-hydroxyphenyl)butan-2-one and an arginate compound, and cosmetic composition containing same” (L'OREAL, priority 2017, dated 2026).

Holding throughout (type): cell-based
In experiment [1] the test system is Staphylococcus aureus ATCC 6538. As to the kind of experiment: MIC / synergy (FIC index) microplate growth test on Staphylococcus aureus. An excerpt:
(§1) As regards the combinations tested, MICa with b and MICb with a are the respective concentrations of A and of B in the combinations which make it possible to obtain a microbial growth percentage of less than or equal to 25%.
(§2) When the FIC index value is less than or equal to 1, it is considered that the combination of test compounds has a synergistic effect.
The microbial strain Staphylococcus aureus ATCC 6538 and a double-concentration nutrient broth liquid culture medium were used.
(§3) A 96-well microplate at an incubation temperature of 32.5° C. is used.
(§4) The incubation time of the microplate for the three abovementioned strains is from 18 to 24 hours aerobically.
(§5) A 10% (weight/volume) stock solution was prepared by mixing 1 g of compound in 9 ml of aqueous 1‰ agar solution. Successive dilutions were made with the 1‰ agar solution. • Tests of compounds A and B alone
(§6) 50 μL of each of the daughter solutions obtained containing compound A or B are added to the microplate wells. 100 μl of Sabouraud liquid nutrient broth inoculated at double concentration with the strain Candida albicans and 50 μl of aqueous 1‰0 agar solution are also added thereto. • Tests of compounds A and B as a mixture
(§7) 50 μL of each of the daughter solutions obtained containing compound A and 50 μL of each of the daughter solutions obtained containing compound B are added to the microplate wells. 100 μl of Sabouraud liquid nutrient broth inoculated at double concentration with the strain Candida albicans are also added thereto.
(§8) A positive microbial growth control was also prepared. The positive microbial growth control corresponds to a mixture of 100 μl of aqueous 1‰ agar solution with 100 μl of Sabouraud liquid nutrient broth inoculated at double concentration with the strain Candida albicans in the absence of compounds A and B.
(§9) An absorbance control was performed in parallel on compounds A and B alone. This control corresponds to 100 μL of double concentration sterile Sabouraud liquid nutrient broth +100 μl of double concentration compound A or B.
(§10) In the three cases (absorbance control, growth control and test), the final volume present in each of the microplate wells is 200 μL.
(§11) The test as described above (tests, absorbance control and growth control) was performed again to test the combination A+B on the strains Staphylococcus aureus and Pseudomonas aeruginosa.

For experiment [2], the system named is Candida albicans ATCC 10231. As to the kind of experiment: MIC / synergy (FIC index) microplate growth test on Candida albicans.
Description: as §1, §2
The microbial strain Candida albicans ATCC 10231 and a double-concentration Sabouraud broth liquid culture medium were used.
as §3, §4, §5, §6, §7, §8, §9, §10
In the two cases (test and control), the inoculum represents the concentration of the strain Candida albicans present in the final volume of the wells (200 μL) and is between 2 and 6×10^5 cfu/ml of Candida albicans.

For experiment [3], the system named is Pseudomonas aeruginosa ATCC 9027. As to the kind of experiment: MIC / synergy (FIC index) microplate growth test on Pseudomonas aeruginosa.
Description: as §1, §2
The microbial strain Pseudomonas aeruginosa ATCC 9027 and a double-concentration nutrient broth liquid culture medium were used.
as §3, §4, §5, §6, §7, §8, §9, §10, §11

The mark [4] stands for this setting: weight % of active material, growth <= 25%.

As for `CCCCCCCCCCCC(=O)N[C@@H](CCCNC(=N)N)C(=O)OCC.Cl` [B, ethyl N-lauroyl arginate hydrochloride, reference compound], the microbial growth percentage turned out to be 71% in experiment [1] (0.00025 weight % B alone (0 A)); 0% in experiment [1] (0.0005 weight % B alone (0 A)); 28% in experiment [2] (0.0025 weight % B alone (0 A)); 9% in experiment [2] (0.005 weight % B alone (0 A)); 37% in experiment [3] (0.0025 weight % B alone (0 A)); 10% in experiment [3] (0.005 weight % B alone (0 A)). Besides, the “% MIC of B alone” value is recorded as 0.0005% in experiment [1] (setting [4]), 0.005% in experiment [2] (setting [4]) and 0.005% in experiment [3] (setting [4]).
Regarding `CCOc1cc(CCC(C)=O)ccc1O` [A, 4-(3-ethoxy-4-hydroxyphenyl)butan-2-one], the microbial growth percentage in experiment [1] (0.125 weight % A alone (0 B)) was determined as 58%; in experiment [1] (0.25 weight % A alone (0 B)), 60%; in experiment [1] (0.5 weight % A alone (0 B)), 0%; in experiment [2] (0.025 weight % A alone (0 B)), 80%; in experiment [2] (0.05 weight % A alone (0 B)) it was 62%; in experiment [2] (0.1 weight % A alone (0 B)), 24%. Moreover, the microbial growth percentage in experiment [2] (0.2 weight % A alone (0 B)) came to 3%; in experiment [3] (0.125 weight % A alone (0 B)) it was 99%; in experiment [3] (0.25 weight % A alone (0 B)) it was 46%; in experiment [3] (0.5 weight % A alone (0 B)) it was 37%; in experiment [3] (1 weight % A alone (0 B)), 41%; in experiment [3] (2 weight % A alone (0 B)), 19%. Besides, the “% MIC of A alone” value in experiment [1] (setting [4]) was determined as 0.5%; in experiment [2] (setting [4]) it was 0.2%; in experiment [3] (setting [4]), 2%.
